According to patent US20130150430A1, “Methods for Impairing the P53/HDM2 Auto-Regulatory Loop in Multiple Myeloma Development Using mIR-192, mIR-194 and mIR-215” (THE OHIO STATE UNIVERSITY, priority 2011, published 2013):

Tests used:
Type in all cases: cell-based, human
[1] = tested on: WT p53 MM cells; assay: Colony suppression assay after lentiviral miRNA transduction; conditions: lentivirus-transduced WT p53 cells; miR-34a internal control; scored at 14 days
Procedure: FIG. 3E, FIG. 3F: Soft agar colony suppression assay in WT TP53 and mutant TP53 MM cell lines after miRNAs transduction by lentivectors.
A total of 30×10^3 cells were infected with Lenti-mir-192: PMIRH 192-PA-1 Lenti-mir-194-1:PMIRH 1941PA-1; Lenti-mir-215:PMIRH 215 PA-1; Control Lentivector(pCDH-CMV-EFI-copGFP cDNA cloning and Expression vector): CD511 B-1 (System Biosciences) as per the manufacturer's protocol. MM cells were plated in quadruplicate in 1 mL of methylcellulose medium for Mouse cells (Cat#03234, Stem cell Technologies) in 6-well culture plates. Colonies consisting of more than 40 (125μ) cells were scored at 14 days.

[2] = tested on: KMS-28BM cells; assay: Cell cycle analysis by flow cytometry (sub-G1); conditions: 48 hr after transfection; Scr control ~3%
Procedure: FIG. 3G, FIG. 3H, FIG. 31, FIG. 3J: Flow cytometry analysis in MM1s (FIG. 3G), NCI-H929 (FIG. 3H) and KMS28BM (FIG. 31) cells (miR-192, miR-194, miR-215 and Scr transfected) at 48 hr of transfection, after first being arrested and synchronized in G2/M phase by Nocodazole for 16 hr. Apoptosis in KMS28BM was evaluated by caspase-3 activity (FIG. 3J). All experiments were performed in triplicate ±SD.
Nocodazole was (Sigma-Aldrich) was dissolved in DMSO as a stock solution of 10 mg/ml for cell cycle arrest in G2/M phase. Cells were first arrested and synchronized in G2/M phase by growth in 80 nM nocodazole for 16 hr. Cells were then washed and fresh medium added. After 6 hr, cell cycle analysis was performed by propidium iodide staining. Corresponding amounts of DMSO alone were added in control experiments. […] For DNA content analysis, cells were fixed in methanol at −20° C., washed again, rehydrated, re-suspended in PBS containing 50 μg/ml propidium iodide (PI) and 50 μg/ml RNase A, and analyzed by flow cytometry (Becton Dickinson). […] After the treatment the cells were analyzed using Caspase-Glo 3 Assay kit (Promega) according to the manufacturer's instructions. Continuous variables were expressed as mean values ± standard deviation (s.d.).

[3] = tested on: IGF-1R and IGF-1 in MM1s cells; assay: Western blot of IGF-1R and IGF-1 after miRNA transfection; conditions: pre-miRNA transfected
Procedure: FIG. 6A, FIG. 6B: Western blot showing IGF-1R and IGF-1 expression after miR-192 and miR-215 transfection using pre (FIG. 6A) and ASOs (FIG. 6B) for miR-192, miR-215, miR-194 and Scr in MM1s cells treated for 12 hr with Nutlin-3a.
Samples were extracted in 15 mM Tris.Cl, pH 7.5/120 mM NaCl/25 mM KCl/2 mM EGTA/0.1 mM DTT/0.5% Triton X-100/[…] leupeptin/0.5 mM PMSF. Total protein (35 μg) from each sample was separated on a 4-20% Tris-HCl-Criterion precast gel Bio-Rad (cat#345-0032, Hercules, Calif.) and transferred to a poly(vinylidene difluoride) filter (Millipore). The filter was blocked in 5% nonfat dry milk, incubated with the specific antibody, washed, and probed with secondary antibody IgG conjugated to horseradish peroxidase (Santa Cruz Biotechnology), and developed with enhanced chemiluminescence (Amersham Pharmacia). […]

| Substance | colony formation [1] | sub-G1 fraction (indicative of cell death) [2] [%] | IGF-1R and IGF-1 protein levels [3] |
| --- | --- | --- | --- |
| miR-192: microRNA, p53-activated, down-regulated in MM; transfected as miRNA precursor (Ambion) or lentivector; SEQ ID NO:56 (CUGACCUAUGAAUUGACAGCC; listed as RNA, chemistry not given here; listed as Homo sapiens) | suppressed colony formation to an extent comparable to miR-34a | ~25 | decreased |
| miR-215: microRNA, p53-activated, down-regulated in MM; transfected as miRNA precursor (Ambion) or lentivector; SEQ ID NO:58 (AUGACCUAUGAAUUGACAGAC; listed as RNA, chemistry not given here; listed as Homo sapiens) | suppressed colony formation to an extent comparable to miR-34a | 30 | decreased |
